Results from patent US20250136555A1 (HARBIN MEDISAN PHARMACEUTICAL CO., LTD., priority 2022, published 2025).
“Also recorded” adds a separate entry of the source. Read-outs that look alike come from different tables or passages of the source.

Legend:
[1] = test system: non-PPAR nuclear receptors; experiment: GAL4 hybrid reporter gene method, non-PPAR nuclear receptors (summary statement); format: cell-based; conditions: 1 μM
Experimental: Reporter gene plasmids for different nuclear receptors were constructed by referring to the method in the literature (Journal of Medicinal Chemistry 2022, 65, 2571-2592). Transfection working solutions for different nuclear receptors were prepared and added into COS-7 cells. The preparation method for the transfection working solution was as follows: the constructed pBIND-Gal4-PPARα (LBD) (or pBIND-Gal4-PPARδ (LBD) plasmid or pBIND-Gal4-PPARγ (LBD) plasmid or pBIND-Gal4-RARα (LBD) plasmid or pBIND-Gal4-RARγ (LBD) plasmid or pBIND-Gal4-RARβ (LBD) plasmid or pBIND-Gal4-RORα (LBD) plasmid or pBIND-Gal4-RORγ (LBD) plasmid or pBIND-Gal4-RORβ (LBD) plasmid or pBIND-Gal4-FXR (LBD) plasmid or pBIND-Gal4-RXRα. (LBD) plasmid or pBIND-Gal4-RXRγ (LBD) plasmid or pBIND-Gal4-RXRβ (LBD) plasmid or pBIND-Gal4-VDR (LBD) plasmid or pBIND-Gal4-LXRα (LBD) plasmid or pBIND-Gal4-LXRβ (LBD) plasmid or pBIND-Gal4-[…] (LBD) plasmid or pBIND-Gal4-PXR (LBD) plasmid or pBIND-Gal4-CAR (LBD) plasmid), 15 μg of pGL4.35-9×Gal4 UAS plasmid (purchased from Promega (Beijing) Biotech Co., Ltd.), and 60 μL of a transfection reagent ([…], purchased from Wuhan ABclonal Biotechnology Co., Ltd.) were added to 2 mL of Opti-MEM, the mixture was left to stand at room temperature for 15 min, and then the working solution was obtained.

C57 mice = experiment: Serum triglyceride levels in mice; format: in vivo
Experimental: Animals: 48 male C57 mice, SPF grade, 8 weeks old, weighing about 20 g, purchased from Beijing Vital River. All animals maintained a 12-hour alternating circadian rhythm and were given ad libitum access to food and water. […] Mice in the control group were administered a solvent control CMC-Na every day, and mice in each of the administration groups were administered the corresponding drug every day. Intragastric administration was performed for 5 consecutive days, and the mice were given ad libitum access to food and water during administration. Each group of mice was weighed every day, and their body weight, hair, feces, and activities were carefully observed and recorded. Two hours after administration on day 5, blood was collected from the orbit, and the mice were euthanized. The whole blood was left to stand at room temperature for 2 h and centrifuged at 3000 rpm for 15 min, and serum was collected. The serum was placed onto the automatic biochemical analyzer (Google Biotechnology Co., Ltd.) to determine the triglyceride (TG) levels in the serum.

[2] = test system: hepatic fibrosis model mice; experiment: Tetrachloromethane-induced hepatic fibrosis in mice; format: in vivo, C57 mice
Experimental: Animals: 30 male C57 mice, SPF grade, 8 weeks old, weighing about 20 g, purchased from Beijing Vital River. All animals maintained a 12-hour alternating circadian rhythm and were given ad libitum access to food and water. […] The mice were all fed food and water normally, and the modeling lasted for 3 weeks. The mice in the model group and each of the administration groups were injected twice a week with a 25% CCl4 oil solution at a dose of 2 mL/kg, and the mice in the control group were injected with an oil solvent with the same volume. The administration was started at the same time of molding. […] After 3 weeks of administration, the mice were all fed food and water normally. Each group of mice was weighed every day, and their body weight, hair, feces, and activities were carefully observed and recorded. Twenty-four hours after the sixth injection of CCl4, the mice were dissected for sampling. Blood was collected from the orbit, the mice were euthanized, and the liver was collected. The right lobular tissue of the liver was fixed with 4% paraformaldehyde and used for sectioning followed by HE and sirius red staining. Part of liver tissues were divided into 3 parts and snap-frozen in liquid nitrogen for subsequent assays of other indexes. The pre-treated tissue was sent to Wuhan Servicebio Technology Co., Ltd. for preparing HE-stained sections and sirius red-stained sections. The liver tissue stored at −80° C. was taken and placed in liquid nitrogen, and about 200 mg of liver tissue was rapidly cut off. Hydroxyproline in the liver tissue was assayed according to the method in the product's instruction (Beijing Solarbio Science & Technology Co., Ltd., BC0255).

NASH model mice = experiment: NASH induced by HF-CDAA diet in mice; format: in vivo, C57 mice
[3] = Pharmacokinetic evaluation in rats; format: in vivo, SD rats; conditions: for AUC(0-inf): read-out: Area under the curve AUC(0-∞); for Tmax: read-out: Peak time Tmax
Experimental: Animals: 6 SPF-grade male SD rats were purchased from Beijing Vital River Laboratory Animal Technology Co., Ltd.
Grouping: rats were divided into 2 groups, with 3 rats in each group; one group was an oral administration group, and the other group was an intravenous injection group. The dose in the oral administration group was 10 mpk, and the dose in the intravenous injection group was 2 mpk.
Experimental procedures: after rats in the intravenous injection group were administered by tail vein injection, about 0.25 mL of blood was collected from the orbit at 0.083 h, 0.25 h, 0.5 h, 1 h, 2 h, 4 h, 6 h, 8 h, and 24 h, respectively, and then heparin sodium was rapidly added for anticoagulation after blood collection. The blood was placed on ice after collection. Rats in the oral administration group were fasted for 12 h before administration and fed 4 h after administration. After the rats were administered orally, about 0.25 mL of blood was collected from the orbit at 0.083 h, 0.25 h, 0.5 h, 1 h, 2 h, 4 h, 6 h, 8 h, and 24 h, respectively, and then heparin sodium was rapidly added for anticoagulation after blood collection. The blood was placed on ice after collection. All samples were centrifuged at 6000 r/min for 3 min in a low-temperature centrifuge, and plasma was obtained after separation. The content of the compound in the plasma was detected via LC-MS/MS-18, and relevant pharmacokinetic parameters were calculated according to the plasma concentration data of different time points.

[4] = compound 1 0.1 mg/kg vs GFT505 10 mg/kg
[5] = NASH model mice, 0.1 mg/kg intragastric daily, 2 weeks
[6] = male, SD, rat, plasma, 2 mg/kg, intravenous injection, 2 mpk
[7] = male, SD, rat, plasma, 10 mg/kg, oral administration, 10 mpk

Structure (SMILES): Cc1cc(CN2C(=O)CN(c3ccc(C(F)(F)F)cc3)C2=O)cc(C)c1OC(C)(C)C(=O)O [Compound 1, 2-(4-((2,5-Dioxo-3-(4-(trifluoromethyl)phenyl)imidazolidin-1-yl)methyl)-2,6-dimethylphenoxy)-2-methylpropionic Acid]
- agonistic effect on non-PPAR nuclear receptors [1]: no significant agonistic effect
- triglyceride level in mouse serum (FIG. 1) (C57 mice; 1 mg/kg intragastric, 5 consecutive days): significantly reduce the triglyceride level
- effect in reducing triglycerides versus positive drugs (C57 mice; compound 1 1 mg/kg vs GFT505 1 mg/kg, pemafibrate 1 mg/kg, fenofibrate 30 mg/kg): significantly more effective in reducing triglycerides than GFT505 and pemafibrate at the equivalent dose; also recorded: superior to fenofibrate
- collagen deposition in liver, sirius red staining (FIG. 15) ([2]; CCl4 model): significantly reduce collagen deposition
- effect on the hepatic fibrosis mouse model (conclusion) ([2]; CCl4 model): protective effect
- inflammatory infiltration in liver, HE staining (FIG. 14) ([2]; CCl4 model): reduce inflammatory infiltration
- hydroxyproline content in the liver (FIG. 13) ([2]; CCl4 model, 0.03 and 0.1 mg/kg intragastric daily, 3 weeks): dose-dependently reduce the hydroxyproline content
- improving effect on collagen deposition versus GFT505 [2, 4]: superior to that of GFT505 at 10 mg/kg
- effect on hydroxyproline content versus GFT505 ([2]; compound 1 0.1 mg/kg vs GFT505 at 30 mg/kg (so in the source)): superior to that of GFT505 at 30 mg/kg
- pathological state of NASH mice (conclusion) (NASH model mice; 0.1 mg/kg): significantly improve the pathological state
- collagen deposition in liver, sirius red staining (FIG. 8) (NASH model mice; NASH model mice, 0.1 mg/kg): reduce collagen deposition
- inflammatory infiltration in hepatic lobules, HE staining (FIG. 7) (NASH model mice; NASH model mice, 0.1 mg/kg): reduce inflammatory infiltration
- lipid droplets in liver, oil red staining (FIG. 9) (NASH model mice; NASH model mice, 0.1 mg/kg): reduce the number and area of lipid droplets
- liver mRNA expression level of Acta2 (FIG. 12) (NASH model mice; NASH model mice, 0.1 mg/kg): inhibit the increase
- liver mRNA expression level of Ccl2 (FIG. 11) (NASH model mice; NASH model mice, 0.1 mg/kg): inhibit the increase
- liver mRNA expression level of Ccl5 (FIG. 11) (NASH model mice; NASH model mice, 0.1 mg/kg): inhibit the increase
- liver mRNA expression level of Cd11b (FIG. 11) (NASH model mice; NASH model mice, 0.1 mg/kg): inhibit the increase
- liver mRNA expression level of Col1a1 (FIG. 12) (NASH model mice; NASH model mice, 0.1 mg/kg): inhibit the increase
- liver mRNA expression level of Col3a1 (FIG. 12) (NASH model mice; NASH model mice, 0.1 mg/kg): inhibit the increase
- liver mRNA expression level of Tgfb1 (FIG. 12) (NASH model mice; NASH model mice, 0.1 mg/kg): inhibit the increase
- liver mRNA expression level of Tnf (FIG. 11) (NASH model mice; NASH model mice, 0.1 mg/kg): inhibit the increase
- triglyceride content in the liver (FIG. 10) (NASH model mice; NASH model mice, 0.1 mg/kg): reduce triglyceride accumulation
- serum ALT level (FIG. 6) (NASH model mice; [5]): down-regulated
- serum AST level (FIG. 6) (NASH model mice; [5]): down-regulated
- effect on reducing hepatic enzymes versus GFT505 (NASH model mice; [4]): slightly better effect on reducing the levels of hepatic enzymes than that of GFT505 at 10 mg/kg
- effect on reducing hepatic triglycerides versus GFT505 (NASH model mice; [4]): superior to that of GFT505 at 10 mg/kg
- effect on reducing lipid accumulation versus GFT505 (NASH model mice; [4]): superior to that of GFT505 at 10 mg/kg
- therapeutic effect in NASH mice versus GFT505 (NASH model mice; [4]): equivalent therapeutic effect to that of GFT505 at a dose of 10 mg/kg
- pharmacokinetic properties ([3]; in vivo): good pharmacokinetic properties
- Half-life T1/2 ([3]; intravenous injection, 2 mpk): 4.82 ± 1.05 h
- Peak concentration Cmax ([3]; intravenous injection, 2 mpk): 4.30667 ± 1.54613 µg/mL
- AUC(0-inf) [3, 6]: 4.25 ± 1.24 µg·h/mL
- Tmax [3, 6]: 0.08 h
- AUC(0-inf) [3, 7]: 22.3 ± 3.55 µg·h/mL
- bioavailability ([3]; male, SD, rat, plasma, 10 mg/kg, oral administration, 10 mpk, read-out: Bioavailability F (%)): 104.7 ± 0.17%
- Tmax [3, 7]: 2.25 ± 3.25 h
- Half-life T1/2 ([3]; oral administration, 10 mpk): 6.72 ± 1.39 h
- Peak concentration Cmax ([3]; oral administration, 10 mpk): 2.81667 ± 1.02041 µg/mL
